Test results reported in patent publication US20090131481A1, “Transcription Factor Modulating Compounds and Methods of Use Thereof” (Paratek Pharmaceuticals, Inc., published 2009).
Where two headings read alike, the source gives them in different places.

Assays:
P. aeruginosa = P. aeruginosa cytotoxicity whole cell assay (J774 cells, LDH release); details: relative to vehicle treated cells infected with wild type P. aeruginosa
Y. pseudotuberculosis = assay: microbe, parasite or virus in culture; details: Yersinia pseudotuberculosis, J774, read-out: % Cytotoxicity
LcrF (VirF) = LcrF (VirF) (Yersinia pestis, UniProt P28808); assay: biochemical; type: binding, Y. pseudotuberculosis
ExsA = target: T1, ExsA (Pseudomonas aeruginosa, UniProt P26993); assay: Chemiluminescence-based ExsA-DNA binding assay; parameters: species or system P. aeruginosa; details: Table 7, cell-free system; read-out: ExsA EC50
T1 construct: made in house
T1 sequence (P26993 1-278): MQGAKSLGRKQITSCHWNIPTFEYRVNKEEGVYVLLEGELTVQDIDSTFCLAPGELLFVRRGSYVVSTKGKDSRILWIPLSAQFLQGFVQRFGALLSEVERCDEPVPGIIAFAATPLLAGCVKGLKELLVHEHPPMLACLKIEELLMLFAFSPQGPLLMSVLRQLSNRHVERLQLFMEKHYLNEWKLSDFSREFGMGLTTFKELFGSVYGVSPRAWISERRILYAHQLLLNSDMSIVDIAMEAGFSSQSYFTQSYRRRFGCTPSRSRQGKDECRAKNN

[1] = EC50 for inhibition of LcrF(VirF)-DNA binding

Sequence of LcrF (VirF) (P28808 whole entry, looked up): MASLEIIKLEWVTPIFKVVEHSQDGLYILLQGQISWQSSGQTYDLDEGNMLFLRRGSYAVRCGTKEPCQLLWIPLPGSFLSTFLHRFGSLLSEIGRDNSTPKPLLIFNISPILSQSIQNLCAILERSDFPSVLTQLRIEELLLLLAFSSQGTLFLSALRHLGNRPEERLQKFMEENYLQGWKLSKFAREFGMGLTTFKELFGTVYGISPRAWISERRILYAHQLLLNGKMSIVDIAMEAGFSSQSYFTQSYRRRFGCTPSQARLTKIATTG

Row | Compound | Cytotoxicity at 50 μg/mL Pseudomonas (P. aeruginosa) | activity at 50 µg/mL (Y. pseudotuberculosis) | EC50 (LcrF (VirF); [1]) | EC50 (ExsA) | EC50 (LcrF (VirF); read-out: EC50 for inhibition of LcrF(VirF)-DNA binding)
1 | COc1cc(NC(=O)/C=C/c2ccc(F)cc2)ccc1-c1nc2ccc([N+](=O)[O-])cc2n1O [ET] | * (reduced P. aeruginosa cytotoxicity to 99-75% of untreated, wild type levels at 50 mg/mL) | < 75% | 10 to 25 µM | 10 to 25 µM | 
2 | O=C(Nc1ccc(-c2nc3ccc([N+](=O)[O-])cc3n2O)cn1)c1ccc(F)cc1 [DU] | * (reduced P. aeruginosa cytotoxicity to 99-75% of untreated, wild type levels at 50 mg/mL) | < 75% | 10 to 25 µM | 10 to 25 µM | 
3 | N#Cc1ccc2nc(-c3ccc(NC(=O)c4ccc(F)cc4)cc3)n(O)c2c1 [CV] | * (reduced P. aeruginosa cytotoxicity to 99-75% of untreated, wild type levels at 50 mg/mL) | < 75% | > 25 µM | 10 to 25 µM | 
4 | Cc1ccc(/C=C/C(=O)Nc2ccc(-c3nc4ccc(C#N)cc4n3O)cc2)cc1 [CP] | * (reduced P. aeruginosa cytotoxicity to 99-75% of untreated, wild type levels at 50 mg/mL) | 75 to 99% | 10 to 25 µM |  | 
5 | O=C(C/C=C/c1ccccc1)Nc1ccc(-c2nc3ccc([N+](=O)[O-])cc3n2O)cc1 [CY] | * (reduced P. aeruginosa cytotoxicity to 99-75% of untreated, wild type levels at 50 mg/mL) | < 75% | > 25 µM |  | 
6 | O=C(/C=C/c1ccc(F)cc1)Nc1ccc(-c2nc3ccc([N+](=O)[O-])cc3n2O)nc1 [DZ] | * (reduced P. aeruginosa cytotoxicity to 99-75% of untreated, wild type levels at 50 mg/mL) | < 75% | 10 to 25 µM |  | 
7 | CCOP(=O)(COn1c(-c2ccc(NC(=O)/C=C/c3ccc(F)cc3)cc2)nc2ccc([N+](=O)[O-])cc21)OCC [ED, (2-{4-[(E)-3-(4-Fluoro-phenyl)-acrloylamino]-phenyl}-6-nitro-benzoimidazol-1-yloxymethyl)-phosphonic acid diethyl ester] | * (reduced P. aeruginosa cytotoxicity to 99-75% of untreated, wild type levels at 50 mg/mL) | < 75% | > 25 µM | < 10 µM | 
8 | CCc1cc(-c2nc3ccc([N+](=O)[O-])cc3n2O)ccc1NC(=O)c1ccc(C(C)=O)cc1 [DL] | * (reduced P. aeruginosa cytotoxicity to 99-75% of untreated, wild type levels at 50 mg/mL) | < 75% | 10 to 25 µM | 10 to 25 µM | 
9 | Cc1cc2nc(-c3ccc(NC(=O)c4ccc(-c5cnco5)cc4)cc3)n(O)c2cc1[N+](=O)[O-] [EX, N-[4-(1-Hydroxy-5-methyl-6-nitro-1H-benzoimidazol-2-yl)-phenyl]-4-oxazol-5-v-benzamide] | ** (reduced P. aeruginosa cytotoxicity below 75% of untreated, wild type levels at 50 mg/mL) | 75 to 99% | > 25 µM |  | 
10 | CC(=O)c1ccc(C(=O)Nc2ccc(-c3nc4ccc(C#N)cc4n3O)cc2)cc1 [AA] | ** (reduced P. aeruginosa cytotoxicity below 75% of untreated, wild type levels at 50 mg/mL) | < 75% | > 25 µM |  | 
11 | O=C(/C=C/c1ccc(F)cc1)Nc1ccc(-c2nc3ccc([N+](=O)[O-])cc3n2O)cc1F [EL, (E)-N-[2-Fluoro-4-(1-hydroxy-6-nitro-1H-benzoimidazol-2-yl)-phenyl]-3-(4-fluoro-phenyl)-acrylamide] | * (reduced P. aeruginosa cytotoxicity to 99-75% of untreated, wild type levels at 50 mg/mL) | < 75% | 10 to 25 µM | 10 to 25 µM | 
12 | O=C(Nc1ccc(-c2nc3ccc([N+](=O)[O-])cc3n2O)cc1)c1ccc(-c2cncnc2)cc1 [DC] | * (reduced P. aeruginosa cytotoxicity to 99-75% of untreated, wild type levels at 50 mg/mL) | 75 to 99% | > 25 µM | 10 to 25 µM | 
13 | O=C(/C=C/c1ccc(-n2ccnc2)cc1)Nc1ccc(-c2nc3ccc([N+](=O)[O-])cc3n2O)cc1 [AM, (E)-N-[4-(1-Hydroxy-6-nitro-1H-benzoimidazol-2-yl)-phenyl]-3-(4-imidazol-1-yl-phenyl)-acrylamide] | ** (reduced P. aeruginosa cytotoxicity below 75% of untreated, wild type levels at 50 mg/mL) | 75 to 99% |  |  | > 25 µM
14 | O=C(Nc1ccc(-c2nc3ccc([N+](=O)[O-])cc3n2O)cc1)c1ccccc1O [DN] | * (reduced P. aeruginosa cytotoxicity to 99-75% of untreated, wild type levels at 50 mg/mL) | < 75% | 10 to 25 µM | 10 to 25 µM | 
15 | CC(=O)c1ccc(C(=O)Nc2ccc(-c3nc4ccc([N+](=O)[O-])cc4n3O)nc2)cc1 [DR] | * (reduced P. aeruginosa cytotoxicity to 99-75% of untreated, wild type levels at 50 mg/mL) | < 75% | > 25 µM | 10 to 25 µM | 
16 | Cc1cc(C(=O)Nc2ccc(-c3nc4ccc([N+](=O)[O-])cc4n3O)cc2)ccc1F [DD] | * (reduced P. aeruginosa cytotoxicity to 99-75% of untreated, wild type levels at 50 mg/mL) | < 75% | 10 to 25 µM | 10 to 25 µM | 
17 | O=C(Nc1ccc(-c2nc3ncc([N+](=O)[O-])cc3n2O)cc1)c1ccc(F)cc1 [DI] | * (reduced P. aeruginosa cytotoxicity to 99-75% of untreated, wild type levels at 50 mg/mL) | < 75% | 10 to 25 µM | 10 to 25 µM | 
18 | CC(=O)c1ccc(C(=O)Nc2ccc(-c3nc4ncc([N+](=O)[O-])cc4n3O)cc2)cc1 [DJ] | * (reduced P. aeruginosa cytotoxicity to 99-75% of untreated, wild type levels at 50 mg/mL) | < 75% | 10 to 25 µM |  | 
19 | N#Cc1ccc2nc(-c3ccc(NC(=O)/C=C/c4ccccc4)cc3)n(O)c2c1 [CL] | * (reduced P. aeruginosa cytotoxicity to 99-75% of untreated, wild type levels at 50 mg/mL) | < 75% | 10 to 25 µM | 10 to 25 µM | 
20 | COc1cc(C(=O)Nc2ccc(-c3nc4ccc([N+](=O)[O-])cc4n3O)cc2)ccc1F [DM] | * (reduced P. aeruginosa cytotoxicity to 99-75% of untreated, wild type levels at 50 mg/mL) | < 75% | 10 to 25 µM | 10 to 25 µM | 
21 | O=C(Nc1ccc(-c2nc3ccc([N+](=O)[O-])cc3n2O)c(F)c1)c1ccc(F)cc1 [DS] | * (reduced P. aeruginosa cytotoxicity to 99-75% of untreated, wild type levels at 50 mg/mL) | < 75% | 10 to 25 µM | 10 to 25 µM | 
22 | O=C(Nc1ccc(-c2nc3ccc([N+](=O)[O-])cc3n2O)cc1)/C(F)=C/c1ccccc1 [CR] | ** (reduced P. aeruginosa cytotoxicity below 75% of untreated, wild type levels at 50 mg/mL) | < 75% | 10 to 25 µM |  | 
23 | CN(C)c1cc2nc(-c3ccc(NC(=O)/C=C/c4ccc(F)cc4)cc3)n(O)c2cc1[N+](=O)[O-] [EZ, N-[4-(5-Dimethylamino-1-hydroxy-6-nitro-1H-benzoimidazol-2-yl)-phenyl]-3-(4-fluorocinnamyl)-amide] | ** (reduced P. aeruginosa cytotoxicity below 75% of untreated, wild type levels at 50 mg/mL) | 75 to 99% | > 25 µM | 10 to 25 µM | 
24 | O=C(/C=C/c1ccc(-n2cncn2)cc1)Nc1ccc(-c2nc3ccc([N+](=O)[O-])cc3n2O)cc1 [EU, (E)-N-[4-(1-Hydroxy-6-nitro-1H-benzoimidazol-2-yl)-phenyl]-3-(4-[1,2,4]triazol-1-yl-phenyl)-acrylamide] | ** (reduced P. aeruginosa cytotoxicity below 75% of untreated, wild type levels at 50 mg/mL) | 75 to 99% | > 25 µM |  | 
25 | O=C(Nc1ccc(-c2nc3ccc([N+](=O)[O-])cc3n2O)cc1)C1=Cc2ccccc2OC1 [EY] | * (reduced P. aeruginosa cytotoxicity to 99-75% of untreated, wild type levels at 50 mg/mL) | < 75% | 10 to 25 µM | 10 to 25 µM | 
26 | O=C(Nc1ccc(-c2nc3ccc([N+](=O)[O-])cc3n2O)cc1)c1ccc(F)c(F)c1 [DA] | * (reduced P. aeruginosa cytotoxicity to 99-75% of untreated, wild type levels at 50 mg/mL) | < 75% | 10 to 25 µM | 10 to 25 µM | 
27 | COc1cc(NC(=O)c2ccc(C(C)=O)cc2)ccc1-c1nc2ccc([N+](=O)[O-])cc2n1O [ES] | ** (reduced P. aeruginosa cytotoxicity below 75% of untreated, wild type levels at 50 mg/mL) | < 75% | > 25 µM | 10 to 25 µM | 
28 | COc1cc(NC(=O)c2ccc(F)cc2)ccc1-c1nc2ccc([N+](=O)[O-])cc2n1O [DT] | * (reduced P. aeruginosa cytotoxicity to 99-75% of untreated, wild type levels at 50 mg/mL) | < 75% | > 25 µM | 10 to 25 µM | 
29 | O=C(/C=C/c1ccc(F)c(CP(=O)(O)O)c1)Nc1ccc(-c2nc3ccc([N+](=O)[O-])cc3n2O)cc1 [DX] | * (reduced P. aeruginosa cytotoxicity to 99-75% of untreated, wild type levels at 50 mg/mL) | < 75% | 10 to 25 µM | 10 to 25 µM | 
